From a melting point compilation (Tetko et al.; mined from patent text by program, amines drawn as free bases though some values may be those of a salt)

First: COc1nc2cc([N+](=O)[O-])c(C)c(C(=O)Nc3ccc(C)cc3)c2nc1OC
Second: COc1cc(OC)c2c(=O)[nH]c(-c3cccc(-c4ccc(C(=O)N(C)C)cc4)n3)nc2c1
The melting point of the first is lower: 214 to 215 °C for the first, 217 to 219 °C for the second.

Compared with `Cc1onc(OCC(=O)NCCO[N+](=O)[O-])c1Br`, `C[Si](C)(C)CCOC(=O)c1ccc(F)cc1N` is lower in melting point: 87 to 88 °C for the first, 43 to 44 °C for the second.

First: Cc1nc2ccc3c(c2o1)OC(CN1CCCCC1)CO3 (stereo not drawn)
Second: COc1ccc(N2CC(CN3CCC(O)(c4ccc(Cl)cc4)CC3)OC2=O)cc1 (stereo not drawn)
The melting point of the first is lower: 109 to 112 °C for the first, 143 to 144 °C for the second.

First: COc1cc(OC)nc(OC(C(=O)O)C2CCc3ccccc32)n1 (stereo not drawn)
Second: CN1CCC(OC2c3ccccc3CCn3c(I)cnc32)CC1 (stereo not drawn)
The melting point of the first is lower: 113 to 117 °C for the first, 163 °C for the second.

First: COc1ccc(CN(CCN(C)CCCCCCNC(=C[N+](=O)[O-])NCCCOc2cccc(CN3CCCCC3)c2)c2ccccn2)cc1
Second: C[C@]1(COc2ccc(N3CCN(Cc4ccc(OC(F)(F)F)cc4)CC3)cc2)Cn2cc([N+](=O)[O-])nc2O1
The melting point of the first is lower: 73 °C for the first, 214 to 217 °C for the second.

First: O=C(O)C(CC1CCCC1)c1cccc([N+](=O)[O-])c1 (stereo not drawn)
Second: COc1cc2c(cc1OC)CN(C(=O)Cc1ccc([N+](=O)[O-])cc1)CC2
The melting point of the first is lower: 95 to 99 °C for the first, 110 to 111 °C for the second.

First: CC[Si](C)(C)CCCCCCCCC1=C(O)C(=O)c2ccccc2C1=O
Second: CCCCCCCCCCCCCCCCC(C(=O)NC1=NN(c2ccccc2)C(=O)C1C)S(=O)(=O)O (stereo not drawn)
The melting point of the first is lower: 39 to 41 °C for the first, 240 °C for the second.

Compared with `O=C(O)c1ccc(OCCCN(CCO)c2ccc(Cl)cc2)cc1`, `CCN(CC)c1ccc(-c2cc(-c3ccc(C(=O)O)cc3)ccc2CC(O)CO)cc1C(C)(C)C` (stereo not drawn) is higher in melting point: 120 to 122 °C for the first, 130 °C for the second.

First: O=c1nc(-c2cccc(Cl)c2)c2cc(C3(c4ccc(Cl)cc4)OCCO3)ccc2[nH]1
Second: Fc1ccc(-c2cc(Cl)nc3ccccc23)cc1
The melting point of the first is higher: 220 °C for the first, 118 °C for the second.

Compared with `COc1ccc(CC(=O)O)c(OCCc2ccccc2)c1`, `COc1cc(S(=O)(=O)c2ccccc2)ccc1[N+](=O)[O-]` is higher in melting point: 107 to 108 °C for the first, 128 to 130 °C for the second.

First: NC(=S)NN=CC=Cc1ccccc1
Second: OCCCc1ccccc1OCc1coc(/C=C/c2ccccc2)n1
The melting point of the first is higher: 137 to 139 °C for the first, 76 to 77 °C for the second.

First: CC(C)(C)[Si](Oc1ccc(OCC2CO2)cc1)(c1ccccc1)c1ccccc1 (stereo not drawn)
Second: O=C(C=P(c1ccccc1)(c1ccccc1)c1ccccc1)CCCOc1ccccc1
The melting point of the first is higher: 97 to 98 °C for the first, 83 to 89 °C for the second.

First: CCn1cc(C(=O)O)c(=O)c2cc(F)c(N[C@@H]3CCC[C@@H]3N)cc21 (relative stereo)
Second: CC(=O)NC[C@H]1CN(c2ccc(C3CCN(C(=O)O)CC3)c(F)c2)C(=O)O1
The melting point of the first is higher: 233 to 235 °C for the first, 144 to 146 °C for the second.

First: CC(C#Cc1ccc(C=Cc2cccnc2)o1)N(O)C(N)=O (stereo not drawn)
Second: Cc1[nH]c2ccccc2c1C(C)c1cccnc1 (stereo not drawn)
The melting point of the first is higher: 166 °C for the first, 139 to 141 °C for the second.

First: ON=Cc1c(-c2ccccc2F)ccc2c1OCO2
Second: Cc1cc(O)c(S(=O)Cc2ccccc2F)c(=O)o1 (stereo not drawn)
The melting point of the first is higher: 197 to 198 °C for the first, 115 to 116 °C for the second.

First: CC(=O)Nc1ccc2c(c1)C(=O)CCC2
Second: CC(=O)NC1CCc2cc3c(cc21)CCC3 (stereo not drawn)
The melting point of the first is lower: 165 to 166 °C for the first, 257 to 259 °C for the second.

First: COc1ccc(NS(=O)(=O)c2ccc(N3CCC(NC[C@H](O)COc4ccc(O)cc4)CC3)cc2)cc1OC
Second: CCOc1ccc(S(=O)(=O)N2c3ccc(Cl)cc3C(O)(c3ccccc3Cl)C2C(=O)N(C)CC(=O)OC)cc1 (stereo not drawn)
The melting point of the first is lower: 101 to 106 °C for the first, 168 to 171 °C for the second.

First: CC12CCC3c4ccc(C(=O)O)cc4CCC3C1CCC2C(=O)c1cc(F)cc(F)c1 (stereo not drawn)
Second: C=CCN1C2CCC1C1CCC2N1C(c1ccc(C(=O)N2CCCCC2)cc1)c1cccc(OC)c1 (stereo not drawn)
The melting point of the first is higher: 258 to 261 °C for the first, 134 to 136 °C for the second.

First: CCC1CN(Cc2c(C)cc(C)cc2C)CCN1 (stereo not drawn)
Second: CCOC(=O)c1cnc2c(c1Cl)CN(C(=O)OCC)CC2
The melting point of the first is lower: 111 to 114 °C for the first, 231 to 233 °C for the second.

First: COc1cccc2c(=O)c3cc(F)ccc3oc12
Second: COc1ccc(-c2cc3c(OC)c(Br)c(OC)cc3o2)cc1
The melting point of the first is higher: 170 to 172 °C for the first, 107 to 109 °C for the second.

First: CC(=O)c1cc(Cl)c2c(c1Cl)C(C)(C)CCS2(=O)=O
Second: CN(C)C=C(C=O)c1ccc(Cl)cc1Cl
The melting point of the first is higher: 154 to 155 °C for the first, 112 to 114 °C for the second.

First: CS(=O)c1ccc2[nH]c3cc(C(=O)Nc4nnn[nH]4)nn3c(=O)c2c1 (stereo not drawn)
Second: Cc1cc(-n2cnn(Cc3ccc(F)cc3)c2=O)sc1C(=O)NCc1cnn(C)c1
The melting point of the first is higher: over 350 °C for the first, 168 to 170 °C for the second.

Compared with `CCCC(=O)c1ccc(NC(=S)N2CCN(c3ncnc4cc(OC)c(OC)cc34)CC2)cc1`, `COc1ccccc1N1CCN(CCCn2c(=O)[nH]cc(C)c2=O)CC1` is lower in melting point: 218 to 219 °C for the first, 168 to 170 °C for the second.

First: Cc1cc(C(=O)c2ccccc2C(F)(F)F)c(N)s1
Second: CC(C)CCSc1cc(C(=O)O)cc(N)c1-c1ccccc1
The melting point of the first is higher: 136 to 137 °C for the first, 124 to 126 °C for the second.

First: C=CC(=O)NC1=CC(O)(C(C)=O)C(C(=O)O)C=C1 (stereo not drawn)
Second: CNC(=O)c1ccc(CN2CCN(c3nc(C)c(C(C)=O)s3)C2=O)cc1
The melting point of the first is lower: 171 °C for the first, 173 to 175 °C for the second.

First: NNC1=Nc2ccc(Br)cc2C(c2ccccn2)=NC1
Second: O=C(Nc1ccccn1)c1cnc2c(c1O)CCCC2
The melting point of the first is lower: 218 to 228 °C for the first, over 300 °C for the second.

First: Cn1cc(C2=C(c3cn(CCCBr)c4ccccc34)C(=O)OC2=O)c2ccccc21
Second: CCOC(=O)CCN1CCN2c3ccccc3Cc3ccccc3C2C1 (stereo not drawn)
The melting point of the first is higher: 168 to 170 °C for the first, 159 to 160 °C for the second.

Compared with `COC12CC(C)(C)C(O1)C(O)C=C2C` (stereo not drawn), `CC(=O)OCC(=O)C1(O)C(C)CC2C3CCC4=CC(=O)CCC4(C)C3C(=O)CC21C` (stereo not drawn) is higher in melting point: 52 to 54 °C for the first, 214 to 219 °C for the second.

First: Brc1ccc2scc(Br)c2c1
Second: CCCOc1ccc(Br)cc1CN(CC)c1ccc(C(=O)O)nn1
The melting point of the first is lower: 95 to 97 °C for the first, 135 to 137 °C for the second.

Compared with `Cc1nc2scc(C)n2c(=O)c1CCN1CCC(C2(c3ccc(F)cc3)OCCO2)CC1`, `COC(=O)c1ccc(CN2CCN(c3nc(C)cs3)C2=O)cc1` is higher in melting point: 140 °C for the first, 157 to 158 °C for the second.

First: NC(=O)c1c(CN2CCC(c3ccccc3)(c3ccccc3)CC2)ncn1Cc1ccc(Cl)cc1
Second: N#Cc1cnc2cc(-c3cncc(CN4CCOCC4)c3)ccc2c1Nc1ccc(Oc2ccccc2)cc1
The melting point of the first is higher: 227 to 228 °C for the first, 185 to 187 °C for the second.

Compared with `CC(=O)COc1c(-c2ccc(S(C)(=O)=O)cc2)cnn(-c2ccc(F)c(F)c2)c1=O`, `CC(C)OCCOc1c(-c2ccc(S(N)(=O)=O)cc2)cnn(-c2ccc(F)c(F)c2)c1=O` is lower in melting point: 169 to 170 °C for the first, 54 to 56 °C for the second.

Compared with `CC(C)c1cc(C(=O)CO[C@@H]2C[C@H](C)CC[C@H]2C(C)C)cc(C(C)C)c1O`, `Cc1cc(NC(=O)CC(C)(C)C)c(C)c2c1OCC2c1ccc(C(C)C)cc1` (stereo not drawn) is higher in melting point: 83 to 84 °C for the first, 135 to 136 °C for the second.

First: O=[N+]([O-])c1ccc(-c2nsc(Cl)n2)cc1
Second: O=C(Nc1ccncc1)C1=C(O)CCn2c1nc1ccccc12
The melting point of the first is lower: 143 to 145 °C for the first, 274 to 276 °C for the second.

Compared with `COC(=O)CCc1cc2cc(Cl)ccc2n1S(=O)(=O)c1cc(OC)ccc1OC`, `CCc1cc(C[C@H](NC(=O)c2c(Cl)cccc2Cl)C(=O)O)ccc1-c1ccccc1OC` is lower in melting point: 120 to 124 °C for the first, 105 to 107 °C for the second.

First: CCNC(=N)Nc1nc2ccc(OC(F)(F)F)cc2s1
Second: CCC1(CC(=O)OC2OC(=O)c3ccccc32)OCCc2c1[nH]c1cc(OC(F)(F)F)ccc21 (stereo not drawn)
The melting point of the first is lower: 127 to 129 °C for the first, 150 °C for the second.

First: NCCc1ccc(Cl)c(Cl)c1CCO
Second: Cc1[nH]c(C=O)c(C)c1CCCCO
The melting point of the first is lower: 79 to 80 °C for the first, 99 °C for the second.

Compared with `COCN1C(C)=C(C(=O)OCOC(=O)C(C)(C)C)C(c2cccc([N+](=O)[O-])c2)C(C(=O)OCOC(=O)C(C)(C)C)=C1C`, `Cc1ccc(-c2c(NS(=O)(=O)c3ccc(C(C)(C)C)cc3)ncnc2OCCOc2ccc(NC(=O)C(C)(C)C)cn2)cc1` is higher in melting point: 73 to 74 °C for the first, 140 to 141 °C for the second.

Compared with `Clc1cc(-c2ccc3nnn(Cc4ccc5ncccc5c4)c3n2)ccn1`, `N#Cc1ncn2c(C(F)(F)F)cc(-c3cccc(Cl)c3)nc12` is higher in melting point: 197 to 199 °C for the first, 221 °C for the second.

First: CC(O)C1C(=O)N2C(C(=O)OCc3ccccc3)=CCC12 (stereo not drawn)
Second: Cc1ccc(S(=O)(=O)OCC(C)O)cc1 (racemic)
The melting point of the first is higher: 94 to 99 °C for the first, 49.5 to 50 °C for the second.

First: Cc1ccc2c(c1)N=C(N1CCN(C)CC1)c1cc(Br)cc3c1N2CC3
Second: COc1ccccc1N1CCN(CCNCCCN2CC=C(c3c[nH]c4cc(Cl)ccc34)CC2)CC1
The melting point of the first is higher: 187 to 189 °C for the first, 71 to 73 °C for the second.

First: CC(C)(C)NS(=O)(=O)c1cccc2c1C(O)CCC2 (stereo not drawn)
Second: O=S(=O)(c1ccc(Cl)cc1)N1CCCC1c1cccc(F)c1 (racemic)
The melting point of the first is lower: 100 to 111 °C for the first, 126 °C for the second.

Compared with `CC1(C)CCC(C)(C)c2cc(C(=O)NNC(=O)c3ccc(C#N)cc3)ccc21`, `CC(N)(C(=O)O)c1ccc(NC=C2C(=O)NC(=O)c3ccc(Br)cc32)cc1` (stereo not drawn) is lower in melting point: 274 to 277 °C for the first, 250 to 253 °C for the second.

First: Cc1cnc(-n2cc(C(F)(F)F)cn2)nc1Oc1cccc(C(F)(F)F)c1
Second: CC(C)NC(=O)c1cc(Oc2ccc3c(C(=O)Nc4cccc(C(F)(F)F)c4)cccc3c2)ncn1
The melting point of the first is lower: 103 to 105 °C for the first, 205 to 208 °C for the second.

First: CC(C)C1NC(=O)CN1C(=O)CNC(=O)CN1CCCC1=O (stereo not drawn)
Second: CSc1cc(C)nc(SC)c1NC(=O)CCCBr
The melting point of the first is lower: 104 to 106 °C for the first, 139 to 140 °C for the second.

First: COCCNc1c([N+](=O)[O-])cc(C(F)(F)F)c2sc(=O)sc12
Second: Cn1c(C(F)(F)F)cc(=O)n(-c2cc(O)c(Br)cc2F)c1=O
The melting point of the first is lower: 96 to 98 °C for the first, 192 °C for the second.

First: COc1cccc(Oc2c(NS(=O)(=O)c3ccc(C(C)(C)C)cc3)ncnc2OCCOc2ncc(-c3ccccc3)cn2)c1
Second: CC(C)(C)OC(=O)N1CCN(C(c2ccccc2)c2ccccc2)CC1
The melting point of the first is higher: 160 to 161 °C for the first, 129 to 131 °C for the second.

Compared with `COC(=O)OCC1OC(Oc2cc(C)cc(O)c2C(=O)CCc2ccc3occc3c2)C(O)C(O)C1O` (stereo not drawn), `CCCOc1ccc(S(=O)(=O)N(C)C)cc1-c1ccc(C#N)c(=O)[nH]1` is higher in melting point: 78 to 82 °C for the first, 225 to 226 °C for the second.

Compared with `Cc1cc2cc(C#N)c(=O)[nH]c2cc1C`, `c1cnc(-c2cccnc2)nc1` is lower in melting point: 300 °C for the first, 51 to 52 °C for the second.
